Drawing on patent US20180057505A1, “BICYCLIC HETEROARYL COMPOUNDS USEFUL AS INHIBITORS OF THE PAR-2 SIGNALING PATHWAY” (VERTEX PHARMACEUTICALS INCORPORATED, priority 2015, published 2018), this text covers IC50 for 15 compounds.

pIC50: −log10 of the molar value.

For orientation: pIC50 means the negative decadic logarithm of the IC50, by convention in mol/L.

Format in all cases: cell-based
Test [1] concerns the target T1, PAR2 (HT-29 cells) (Homo sapiens, UniProt P55085).
T1 construct: host or cells: HT-29
T1 sequence (P55085 26-397): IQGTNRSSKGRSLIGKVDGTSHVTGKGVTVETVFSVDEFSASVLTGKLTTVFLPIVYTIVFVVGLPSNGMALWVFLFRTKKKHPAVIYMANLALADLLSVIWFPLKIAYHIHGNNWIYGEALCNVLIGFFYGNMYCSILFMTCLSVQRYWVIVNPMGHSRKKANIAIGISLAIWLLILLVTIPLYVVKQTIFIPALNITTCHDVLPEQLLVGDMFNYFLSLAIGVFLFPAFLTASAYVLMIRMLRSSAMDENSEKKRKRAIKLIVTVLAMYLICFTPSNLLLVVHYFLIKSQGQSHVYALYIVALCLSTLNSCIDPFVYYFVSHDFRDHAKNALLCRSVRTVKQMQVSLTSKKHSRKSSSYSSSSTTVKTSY
As to the kind of experiment: Ca FLIPR TETRA assay, ANTAGONIST mode, activator 3.1 U/mL trypsin. The conditions noted are these: HT-29 cells, activator 3.1 U/mL trypsin; maximal antagonist concentration per Method (A: 0.1, 1 or 2 μM; B: 50 μM). An outline of the steps:
(§1)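 Ca2+ flux by FLIPR Tetra in HT-29 cells after 30 min r.t. compound preincubation, followed by stimulation with SLIGKV 8 μM, thrombin 1 U/mL, trypsin 3.1 U/mL or UTP 0.6 μM (final). Cells were dye-loaded with calcium 5 beforehand; compound-only responses were also read.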

Test [2] has as its system Thrombin-stimulated Ca2+ response in HT-29 cells. As to the kind of experiment: Ca FLIPR TETRA assay, ANTAGONIST mode, activator 1 U/mL Thrombin. To be noted: HT-29 cells, activator 1 U/mL Thrombin. In short, it runs like this: as §1
Test [3] deals with T1, PAR2 (HT-29 cells). Briefly: Ca FLIPR TETRA assay, ANTAGONIST mode, activator 8 μM SLIGKV. To be noted: HT-29 cells, activator 8 μM SLIGKV; maximal antagonist concentration per Method (A: 0.1, 1 or 2 μM; B: 50 μM). An outline of the steps: as §1
The subject of test [4] is UTP-stimulated Ca2+ response in HT-29 cells. As to the kind of experiment: Ca FLIPR TETRA assay, ANTAGONIST mode, activator 0.6 μM UTP. The conditions noted are these: HT-29 cells, activator 0.6 μM UTP. An outline of the steps: as §1

For the compound `Cc1cn[nH]c1N1CCN(C(=O)c2cc3nc(-c4ccc(F)cc4)cc(C(C)(C)C)c3o2)C(C)(C)C1=O` [Example I-247], the pIC50 in test [1] is 7.70; in test [2] (Homo sapiens) it was less than 5.70; in test [3] it was 7.92; in test [4] (Homo sapiens) it was less than 5.70.

As for `Cc1cc(N2CCN(C(=O)c3cc4nc(-c5ccc(F)cc5)cc(C(C)(C)C)c4o3)C(C)(C)C2=O)[nH]n1` [Example I-248], the pIC50 in test [1] was 7.39; in test [2] (Homo sapiens), less than 5.70; in test [3], 7.96; in test [4] (Homo sapiens), less than 5.70.

With `CCCC(CC)c1cc(-c2ccc(F)cc2)nc2cc(C(=O)N3CCNC(=O)C3(C)C)oc12` (stereo not drawn) [Example I-249], the pIC50 in test [1] is 7.96; in test [2] (Homo sapiens) it was less than 5.70; in test [3], 8.40; in test [4] (Homo sapiens), less than 5.70.

In the case of `Cc1n[nH]cc1N1CCN(C(=O)c2cc3nc(-c4ccc(F)cc4)cc(C(C)(C)C)c3o2)C(C)(C)C1=O` [Example I-250], the pIC50 in test [1] was 7.29; in test [2] (Homo sapiens), less than 5.70; in test [3], 7.82; in test [4] (Homo sapiens) it was less than 5.70.

In the case of `CC1(C)CCC(c2cc(-c3ccc(F)cc3)nc3cc(C(=O)N4CCNC(=O)C4(C)C)oc23)CC1` [Example I-251], the pIC50 in test [1], in test [2], in test [3] and in test [4] was less than 5.70 in each case.

Take `CC(C)(C)c1cc(-c2ccc(Cl)c(F)c2)nc2cc(C(=O)N3CCN(C(=O)c4ccc(C(=O)O)nc4)CC3(C)C)oc12` [Example I-252]: the negative-log IC50 (pIC50) was 6.85 in test [1], less than 5.70 in test [2] (Homo sapiens), 6.92 in test [3] and less than 5.70 in test [4] (Homo sapiens).

On to `CC(C)(C)c1cc(-c2ccc(Cl)c(F)c2)nc2cc(C(=O)N3CCN(c4cccc(C(=O)O[C@@H]5OC(C(=O)O)[C@@H](O)C(O)[C@@H]5O)n4)CC3(C)C)oc12` (stereo partly drawn) [Example I-253, (3S,5S,6S)-6-[6-[4-[7-tert-butyl-5-(4-chloro-3-fluoro-phenyl)furo[3,2-b]pyridine-2-carbonyl]-3,3-dimethyl-piperazin-1-yl]pyridine-2-carbonyl]oxy-3,4,5-trihydroxy-tetrahydropyran-2-carboxylic acid], for which the pIC50 in test [1] was 8.02; in test [2] (Homo sapiens), less than 5.70; in test [3], 8.46; in test [4] (Homo sapiens), less than 5.70.

On to `CC1(C)CCC(c2cc(C(C)(C)C)c3oc(C(=O)N4CCN(C(=O)C5CCC(C(=O)O)O5)CC4(C)C)cc3n2)CC1` (stereo not drawn) [Example I-254], for which the pIC50 is 7.70 in test [1], less than 5.70 in test [2] (Homo sapiens), 8.07 in test [3] and less than 5.70 in test [4] (Homo sapiens).

As for `CC(C)(C)c1cc(-c2ccc(Cl)c(F)c2)nc2cc(C(=O)N3CCN(C(=O)C4CCC(C(=O)O)O4)CC3(C)C)oc12` (stereo not drawn) [Example I-255], the pIC50 in test [1] is 7.89; in test [2] (Homo sapiens), less than 5.70; in test [3], 7.96; in test [4] (Homo sapiens) it was less than 5.70.

As for `CC(C)(C)c1cc(-c2ccc(Cl)cc2)nc2cc(C(=O)N3CCN(C(=O)C4CCC(C(=O)O)O4)CC3(C)C)oc12` (stereo not drawn) [Example I-256], the pIC50 in test [1] is 7.51; in test [2] (Homo sapiens), less than 5.70; in test [3], 7.66; in test [4] (Homo sapiens), less than 5.70.

With `CC(C)(C)c1cc(-c2ccc(Cl)c(F)c2)nc2cc(C(=O)N3CCN(C(=O)c4cccnc4)CC3(C)C)oc12` [Example I-257], the pIC50 is 6.74 in test [1], less than 5.70 in test [2], 6.68 in test [3] and less than 5.70 in test [4].

In the case of `CC1(C)CCC(c2cc(C(C)(C)C)c3oc(C(=O)N4CCN(c5cn[nH]c5)CC4(C)C)cc3n2)CC1` [Example I-258], the pIC50 in test [1] was 7.77; in test [2] (Homo sapiens) it was less than 5.70; in test [3], 7.64; in test [4] (Homo sapiens), less than 5.70.

In the case of `CC(C)(C)c1cc(-c2ccc(Cl)c(F)c2)nc2cc(C(=O)N3CCN(c4cn[nH]c4)CC3(C)C)oc12` [Example I-259], the pIC50 in test [1] was 8.10; in test [2] (Homo sapiens), less than 5.70; in test [3] it was 8.10; in test [4] (Homo sapiens), less than 5.70.

In the case of `CC(C)(C)c1cc(-c2ccc(Cl)c(F)c2)nc2cc(C(=O)N3CCN(c4cn[nH]c4)C(=O)C3(C)C)oc12` [Example I-260], the pIC50 is 8.36 in test [1], less than 5.70 in test [2] (Homo sapiens), 8.48 in test [3] and less than 5.70 in test [4] (Homo sapiens).

Take `CC(C)(C)c1cc(-c2ccc(Cl)c(F)c2)nc2cc(C(=O)N3CCN(c4ccnc(C(=O)O)c4)CC3(C)C)oc12` [Example I-261]: the negative-log IC50 (pIC50) in test [1] was 7.51; in test [2] (Homo sapiens), less than 5.70; in test [3] it was 7.35; in test [4] (Homo sapiens), less than 5.70.
